For one assay, the system named is ABCA1. As to the kind of experiment: qPCR of ABCA1 expression in PMA-differentiated U937 cells. The conditions noted are these: U937 differentiated with PMA 72 h; 10 μM, 6 hours. Type of assay: cell-based, human. As to the method:
(§1) U937 cells differentiated with PMA for 72 hours were treated with T0901317 (10 μM), 22R—HC (3) or with the tested compound (10 μM). […] (n=3/group). *p<0.05, **p<0.01, ***p<0.001.
(§2) LXR agonists induce the expression of target genes, which are involved in cholesterol homeostasis, particularly in the reverse cholesterol transport pathway.43 Indeed, LXR agonists induce the expression of ABCA1 both in macrophages and in many tissues of the periphery such as the intestine.44 Moreover, ABCA1 regulates cholesterol efflux to APOAI acceptors.45 In the liver, LXR activation promotes the biosynthesis of fatty acids, a process also termed as de novo lipogenesis by inducing the expression of the master regulator of hepatic lipogenesis sterol-regulatory element-binding protein 1C (SREBP-1c), as well as several downstream genes in the SREBP-1c pathway, including steroyl CoA desaturase 1 (SCD1) and fatty acid synthase (FASN).43 Therefore, it was investigated, by quantitative PCR (qPCR), the expression of ABCA1, SREBP1c, FASN, and SCD1, by using RNA from monocytic U937 cells (FIG. 3) and from hepatic HepG2 cells (FIG. 4) stimulated with our compounds, the non-steroidal agonist T0901317 or the endogenous ligand 22R—HC (3) as positive controls. […] Then, the induction of genes involved in the lipogenesis using the hepatic cell line HepG2. 43,22 was evaluated. […] Over the time, indeed, substantial efforts have been dedicated to the identification of LXR ligands able to turning on ABC transporter genes, without affecting lipogenic genes levels. This task is still one of the major challenge to the discovery of a clinically useful LXR modulator for atherosclerosis.
(§3) Quantitative Real-Time-PCR. U937 cell line was differentiated in foam macrophages with phorbol 12-myristate 13-acetate (PMA) 10 ng/ml (Sigma) for 72 hours at 37° C. in […] at the concentration of 3×10^6 cells in 10 ml RPMI 10% FBS. At day 3 nuclear receptor ligands were added for 6 hours. HepG2 cells were treated with the ligands as described by Quinet et al.22 Total RNA was purified by TRIZOL (Invitrogen, Carlsbad, Calif., USA). Reverse transcription was performed incubating 2 μg of total RNA 1 hour at 42° C. with MLV-reverse transcriptase (Promega). Quantitative PCR was performed using Sybr Green Master Mix (Applied Biosystems) and real-time PCR (Viia 7 Real Time PCR System, Applied Biosystems). All PCR reactions were done in triplicate. The comparative Ct method was used to quantify transcripts that were normalized for human GAPDH. the following primer pairs were used: […]

For a further assay, the system named is hFXR. As to the kind of experiment: luciferase assay GAL4-hFXR in human embryonic kidney 293 cells. Format: cell-based. The conditions noted are these: compounds at 10 μM. As to the method: Human embryonic kidney 293 cells were co-transfected with GAL4-hRXR (A), GAL4-hPPARγ (B), GAL4-hPXR (C) and GAL4-hFXR (D) expression plasmids together with GAL4 responsive element pMHC100X4-TK-luc and Renilla plasmids. Cells were incubated with vehicle (DMSO), PFMs at the concentration of 10 μM, and the nuclear receptor specific ligands 9cis retinoic acid (100 nM) (A), Rosiglitazone (RSG 100 nM) (B), T0901317 (100 nM) (C) and GW4064 (100 nM) (D) for six hours. The values represent mean±S.D. RLA, relative luciferase activity.
The selectivity of our compounds within the nuclear receptor superfamily was also evaluated by luciferase assays using GAL4-RXR, -PPARγ, -PXR and -FXR plasmids.
Cell Culture and Co-transfection Assays. Human embryonic Kidney 293 cells (American Type Culture Collection) were cultured in Dulbecco's Modified Eagle's medium containing 10% of fetal bovine serum at 37° C. in humidified atmosphere of 5% CO2. […] Luciferase activities were analyzed by luciferase Dual Reporter Assay Systems (Promega) according to the manufacturer's protocol. […]

For another assay, the system named is SREBP1c. The assay can be described thus: qPCR of SREBP1c expression in PMA-differentiated U937 cells. Format: cell-based, human. The conditions noted are these: U937 differentiated with PMA 72 h; 10 μM, 6 hours. As to the method: as §1, §2, §3
In a further assay the test system is SCD1. As to the kind of experiment: qPCR of SCD1 expression in PMA-differentiated U937 cells. The conditions noted are these: U937 differentiated with PMA 72 h; 10 μM, 6 hours. Type of assay: cell-based, human. The procedure:
as §1, §2, §3

The next assay relates to FASN. As to the kind of experiment: qPCR of FASN expression in PMA-differentiated U937 cells. Format: cell-based, human. The conditions noted are these: U937 differentiated with PMA 72 h; 10 μM, 6 hours. The procedure: as §1
LXR agonists induce the expression of target genes, which are involved in cholesterol homeostasis, particularly in the reverse cholesterol transport pathway.43 Indeed, LXR agonists induce the expression of ABCA1 both in macrophages and in many tissues of the periphery such as the intestine.44 Moreover, ABCA1 regulates cholesterol efflux to APOAI acceptors.45 In the liver, LXR activation promotes the biosynthesis of fatty acids, a process also termed as de novo lipogenesis by inducing the expression of the master regulator of hepatic lipogenesis sterol-regulatory element-binding protein 1C (SREBP-1c), as well as several downstream genes in the SREBP-1c pathway, including steroyl CoA desaturase 1 (SCD1) and fatty acid synthase (FASN).43 Therefore, it was investigated, by quantitative PCR (qPCR), the expression of ABCA1, SREBP1c, FASN, and SCD1, by using RNA from monocytic U937 cells (FIG. 3) and from hepatic HepG2 cells (FIG. 4) stimulated with our compounds, the non-steroidal agonist T0901317 or the endogenous ligand 22R—HC (3) as positive controls. […] Then, the induction of genes involved in the lipogenesis using the hepatic cell line HepG2. 43,22 was evaluated. […]
Quantitative Real-Time-PCR. […]

Another assay has as its target T1, hLXRβ (Homo sapiens, UniProt P55055).
T1 sequence (P55055 222-460 limits assumed): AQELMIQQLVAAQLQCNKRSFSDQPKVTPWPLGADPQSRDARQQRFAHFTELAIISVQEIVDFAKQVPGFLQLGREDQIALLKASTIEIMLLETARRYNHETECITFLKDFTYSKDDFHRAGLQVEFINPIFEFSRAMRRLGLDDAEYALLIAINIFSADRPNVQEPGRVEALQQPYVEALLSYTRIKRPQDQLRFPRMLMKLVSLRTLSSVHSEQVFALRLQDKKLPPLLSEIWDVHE
The assay can be described thus: luciferase assay with GAL-4 chimeric hLXRβ receptor in human embryonic kidney 293 cells. Type of assay: cell-based. As to the method: (§4) All the synthesized compounds were first tested for their ability to activate LXRs by using luciferase assays with GAL-4 chimeric receptors. These were performed by co-transfecting plasmids encoding hLXRα- and β-binding domains fused to GAL-4, with the respective responsive element conjugated with the luciferase reporter gene into the human embryonic kidney 293 cells.
(§5) Cell Culture and Co-transfection Assays. Human embryonic Kidney 293 cells (American Type Culture Collection) were cultured in Dulbecco's Modified Eagle's medium containing 10% of fetal bovine serum at 37° C. in humidified atmosphere of 5% CO2. HEK293 cells (4×10^4 cells per well) were transiently transfected in 48 well plate with the reporter plasmids pMH100X4-TK-luc (100 ng/well), Renilla (22 ng/well) together with 100 ng/well of pCMX-Gal4-RXR, pCMX-Gal4-PPAR-γ, pCMX-Gal4-PXR, pFA-CMV-FXR pCMX-Gal4-LXR-α or pCMX-Gal4-LXR-β plasmids using X-tremeGENE 9 DNA Transfection Reagent (Roche). Six hours after transfection, the cells were treated with the appropriate compound for 24 hours. Luciferase activities were analyzed by luciferase Dual Reporter Assay Systems (Promega) according to the manufacturer's protocol. GAL4-LXRs, GAL4-PPAR-γ, GAL4-RXR and TK-MHC100-luc plasmids were described in Villablanca et al.49 GAL4-PXR was a kind gift of Dr. Enrique Sainz (The Scripps Research Institute, La Jolla, USA). GAL4-FXR was a kind gift of Dr. Daniel Merk (Goethe-University Frankfurt am Main). The results obtained by luciferase assays and reported in Table 1 are from three to five independent experiments.
(§6) Statistical analysis. Data are expressed as mean±SEM and were analyzed for significance by ANOVA with Dunnet's multiple comparison tests. The analysis was performed with Prism software. Data in Table 1 are expressed as EC50±SD. In particular, the standard deviations were obtained by calculating the mean of the EC50 of each experiment (three to five independent experiments). The efficacy (%) of the compounds was calculated as the percentage of the compound effect, in terms of LXRα or β activation, versus 8 μM of 22R—HC±SD. The analyses were performed with Prism software.

A further assay deals with T2, hLXRα (Homo sapiens, UniProt Q13133).
T2 sequence (Q13133 209-447 limits assumed): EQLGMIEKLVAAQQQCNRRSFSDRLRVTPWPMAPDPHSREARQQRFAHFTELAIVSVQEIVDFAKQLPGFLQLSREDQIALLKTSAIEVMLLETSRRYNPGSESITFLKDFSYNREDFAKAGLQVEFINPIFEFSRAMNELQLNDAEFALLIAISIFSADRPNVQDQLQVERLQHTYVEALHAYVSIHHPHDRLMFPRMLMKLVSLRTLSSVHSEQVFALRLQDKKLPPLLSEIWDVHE
The assay can be described thus: luciferase assay with GAL-4 chimeric hLXRα receptor in human embryonic kidney 293 cells. Type of assay: cell-based. The procedure: as §4, §5, §6

Regarding `CC[C@H](C[C@@H](O)[C@@H](C)[C@H]1CC[C@H]2[C@@H]3CC=C4C[C@@H](O)CC[C@]4(C)[C@H]3CC[C@]12C)C(C)C` [Compound 20, (22R)-3β-stigmast-5-ene-3,22-diol], the ABCA1 expression result in the assay on ABCA1 is reported as “strong induction of ABCA1 expression”. Besides, the FXR activation entry in the assay with hFXR is reported as “strong FXR activation”. In addition, in the assay with SREBP1c, the SREBP-1c up-regulation entry is “poor activators of SREBP1c and SCD1”. The “SCD1 expression” value in the assay on SCD1 was “poor activators of SREBP1c and SCD1”.

As to `CC(C)CC[C@@H](O)[C@@H](C)[C@H]1CC[C@H]2[C@@H]3CC=C4C[C@@H](O)CC[C@]4(C)[C@H]3CC[C@]12C` [22R-HC (3), 22(R)-hydroxycholesterol, reference compound], the “FASN mRNA levels” value in the assay on FASN was “did not induce up-regulation of FASN and SCD1 transcripts”. Besides, the concentration for a half-maximal effect (EC50) worked out at 4.75 ± 0.12 µM on hLXRβ (GAL4-hLXRβ luciferase, HEK293, dose-response 32-1 μM, mean of three-five independent experiments, read-out: LXRβ EC50 (μM) ± SD) and 6.71 ± 0.71 µM at hLXRα (GAL4-hLXRα luciferase, HEK293, dose-response 32-1 μM, mean of three-five independent experiments, read-out: LXRα EC50 (μM) ± SD). The Emax was found to be 100% on hLXRβ (HEK293, 24 h, read-out: LXRβ Efficacy (%) ± SD, % of compound effect versus 8 μM of 22R-HC) and 100% on hLXRα (HEK293, 24 h, read-out: LXRα Efficacy (%) ± SD). In the assay with SCD1, the “SCD1 expression” value is “did not induce up-regulation of FASN and SCD1 transcripts”.

The record behind these values is patent US20200157135A1, “SIDE-CHAIN MODIFIED ERGOSTEROL AND STIGMASTEROL DERIVATIVES AS LIVER X RECEPTOR MODULATORS” (Ospedale San Raffaele srl, priority 2017, published 2020).
